Here are results for ten molecules from patent US11225475B2, “Substituted pyridines as inhibitors of histone deacetylase” (Alkermes, Inc., priority 2017, dated 2022).

For series [1], the system named is human erythroid (CFU-E, BFU-E) progenitors. The series can be described thus: Erythroid CFU assay (human bone marrow clonogenic progenitors). The settings on record: for Erythroid % control remaining @ 10 uM dose: 14 days in culture. Type of series: cell-based. The procedure: (§1) Clonogenic progenitors of human erythroid (CFU-E, BFU-E), granulocyte-monocyte (CFU-GM) and multipotential (CFU-GEMM) lineages were assessed in a semi-solid methylcellulose-based media formulation containing rhIL-3 (10 ng/mL), rhGM-SCF (10 ng/mL), rhSCF (50 ng/mL) and Epo (3 U/mL).
(§2) Normal human bone marrow light density cells derived from normal bone marrow (NorCal Biologics, California) and qualified at ReachBio, were stored in the gaseous phase of liquid nitrogen (−152° C.) until required for the assay. On the day of the experiment, the cells were thawed rapidly, the contents of each vial was diluted in 10 mL of Iscove's modified Dulbecco's medium containing 10% fetal bovine serum (IMDM+10% FBS) and washed by centrifugation (approximately 1200 r.p.m. for 10 minutes, room temperature). The supernatant was discarded and the cell pellets resuspended in a known volume of IMDM+10% FBS. A cell count (3% glacial acetic acid) and viability assessment (trypan blue exclusion test) was performed for the bone marrow sample.
(§3) On the day of the experiment, the compounds were dissolved in DMSO to a stock concentration of 10 mM. Serial dilutions were prepared from the stock concentration to achieve concentrations of 2 and 0.4 mM. When added to the methylcellulose-based media at 1:1000 (v/v), the final test concentrations of 10, 2 and 0.4 μM were achieved. Additionally, 5-FU was evaluated at 1.0, 0.1 and 0.01 μg/mL.
(§4) Clonogenic progenitors of the human erythroid (CFU-E and BFU-E) and myeloid (CFU-GM) lineages were set up in the methylcellulose-based media formulations described above. All compounds were added to the medium to give the final desired concentrations ([…] 5-Fluorouracil (Sigma Aldrich) was used as a positive control for progenitor proliferation (inhibition of colony growth) and was introduced to the human bone marrow cultures at 1.0, 0.1, and 0.01 μg/mL. Solvent control cultures (containing no compound but 0.1% DMSO) as well as standard controls (containing no compound and no DMSO) were also initiated.
(§5) Human myeloid and erythroid progenitor assays were initiated at 2.0×10^4 cells per culture. Following 14 days in culture, myeloid and erythroid colonies were assessed microscopically and scored by trained personnel. The colonies were divided into the following categories based on size and morphology: CFU-E, BFU-E, CFU-GM and CFU-GEMM.
(§6) The mean±one standard deviation of three replicate cultures was calculated for progenitors of each category (CFU-E, BFU-E, etc.). Two-tailed t-tests were performed to assess if there was a difference in the number of colonies generated between solvent control and treated cultures. Due to the potential subjectivity of colony enumeration, a p value of less than 0.01 is deemed significant. To calculate the concentration of 50% inhibition of colony growth (IC50) for each compound, a dose response curve was generated plotting the log of the compound concentration versus the percentage of control colony growth using XLfit software (IDBS). The concentration of 50% inhibition of colony growth (IC50) was calculated based on the sigmoid curve fit using Dose-Response, One-Site Model formula: y=A+[(B−A)/(1+((C/x)^D))], where A=the initial value (baseline response), B=maximum response, C=center (drug concentration that provokes a response halfway between A and B) and D=slope of the curve at midpoint. Further, plots and additional dose response curves were generated using GraphPad Prism 7.0.
(§7) Erythroid (CFU-E and BFU-E), myeloid (CFU-GM) and multi-potential (CFU-GEMM) colony enumeration was performed by trained personnel. The distribution of colony types as well as general colony and cellular morphology was analyzed. For statistical analysis colony numbers in compound treated cultures were compared to the solvent control cultures. […] The experiment was used to evaluate the potential effect of test compounds on human erythroid and myeloid progenitor proliferation in a methylcellulose-based medium. […]

Series [2] deals with human myeloid (CFU-GM) progenitors. The series can be described thus: Myeloid CFU assay (human bone marrow clonogenic progenitors). In kind it is cell-based. The settings on record: 14 days in culture. The procedure:
as §1, §2, §3, §4, §5, §6, §7

Each structure is given as a SMILES string.

Regarding `Cc1nc2c(s1)CN(C(=O)Nc1nc(-c3ccc(F)cc3)ccc1N)C2` [Comparator 2, reference compound], the “Erythroid % control remaining @ 10 uM dose” value in series [1] turned out to be 45%. The “Myeloid % control remaining @ 10 uM dose” value in series [2] is 103%.

Turning to `Cc1cc2c(cn1)CN(C(=O)Nc1nc(-c3ccc(F)cc3)ccc1N)C2` [Comparator 5, reference compound], in series [1], the “Erythroid % control remaining @ 10 uM dose” value was determined as 25.7%. Besides, the “Myeloid % control remaining @ 10 uM dose” value in series [2] was found to be 66.1%.

As to `CCn1cc2c(n1)CN(C(=O)Nc1nc(-c3ccc(F)cc3)ccc1N)C2` [Comparator 1, reference compound], the “Erythroid % control remaining @ 10 uM dose” value in series [1] was 22%. Besides, the “Myeloid % control remaining @ 10 uM dose” value in series [2] was 34%.

On to `COCc1cc2c(cn1)CN(C(=O)Nc1nc(-c3ccc(F)cc3)ccc1N)C2` [Comparator 6, reference compound], for which, in series [1], the “Erythroid % control remaining @ 10 uM dose” value is recorded as 22.9%. In addition, the “Myeloid % control remaining @ 10 uM dose” value in series [2] is given as 58.9%.

On to `O=c1[nH]cc(F)c(=O)[nH]1` [Compound 5-FU, 5-Fluorouracil, reference compound], for which, in series [1] (erythroid and myeloid progenitor assays, 1.0, 0.1 and 0.01 μg/mL), the “inhibitory effects as positive control for toxicity” value was “exactly as expected”.

Regarding `COCCn1cc2c(n1)CN(C(=O)Nc1nc(-c3cccs3)ccc1N)C2` [Comparator 3, reference compound], the “Erythroid % control remaining @ 10 uM dose” value in series [1] is listed as 18%. In addition, the “Myeloid % control remaining @ 10 uM dose” value in series [2] stood at 9%.

On to `COCc1ccc2c(n1)CN(C(=O)Nc1nc(-c3ccc(F)cc3)ccc1N)C2` [Comparator 8, reference compound], for which, in series [1], the “Erythroid % control remaining @ 10 uM dose” value is listed as 33%. In series [2], the “Myeloid % control remaining @ 10 uM dose” value came out at 70%.

In the case of `COCCn1cc2c(n1)CN(C(=O)Nc1nc(-c3ccc(F)cc3)ccc1N)C2` [Comparator 4, reference compound], the “Erythroid % control remaining @ 10 uM dose” value in series [1] stood at 28%. The “Myeloid % control remaining @ 10 uM dose” value in series [2] is listed as 39%.

As to `Nc1ccc(-c2ccc(F)cc2)nc1NC(=O)N1Cc2cc(CN3CC(F)C3)cnc2C1` [Comparator 7, reference compound], the “Erythroid % control remaining @ 10 uM dose” value in series [1] was 35%. Also, the “Myeloid % control remaining @ 10 uM dose” value in series [2] is 82%.

With `CCc1ncc2c(n1)CN(C(=O)Nc1nc(-c3ccc(F)cc3)ccc1N)C2` [Comparator 9, reference compound], the “Erythroid % control remaining @ 10 uM dose” value in series [1] is reported as 60%. The “Myeloid % control remaining @ 10 uM dose” value in series [2] stood at 79%.
